Assay results published in patent US12344610B2, “APOL1 inhibitors and methods of use” (Maze Therapeutics, Inc., priority 2022, dated 2025).

target: T1, APOL1 G2 (Homo sapiens, UniProt O14791, DEL388-389); experiment: APOL1-mediated calcium transport (calcium influx) assay, HEK T-REx/GCaMP6f/APOL1 G2 K6.3 cells, FLIPR TETRA; type: cell-based; settings: prevention of calcium influx; geometric mean of at least 2 assay runs; † = average of a technical replicate from a single assay run
T1 construct: expressed in transfected cells; host or cells: HEK293 T-REx clonal line stably expressing GCaMP6f (HEK T-REx/GCaMP6f/APOL1 G2 K6.3), doxycycline induced
T1 sequence (O14791 with tags, fused parts or gaps DEL388-389): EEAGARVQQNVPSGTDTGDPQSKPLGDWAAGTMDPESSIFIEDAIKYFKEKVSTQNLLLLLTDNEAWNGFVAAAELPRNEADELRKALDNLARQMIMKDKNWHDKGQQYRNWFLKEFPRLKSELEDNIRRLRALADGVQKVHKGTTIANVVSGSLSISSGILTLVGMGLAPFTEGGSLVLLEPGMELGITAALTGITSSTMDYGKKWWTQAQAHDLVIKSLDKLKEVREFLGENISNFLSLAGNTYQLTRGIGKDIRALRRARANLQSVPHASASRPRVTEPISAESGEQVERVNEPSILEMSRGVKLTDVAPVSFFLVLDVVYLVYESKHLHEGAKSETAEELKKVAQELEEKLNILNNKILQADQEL
Procedure, shortened: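 A HEK293 T-REx clone stably expressing GCaMP6f had APOL1 G2 induced with doxycycline (20 ng/mL solution added) for 6 h. Cells were then washed into Ca2+-free Tyrode's buffer (pH 7.4) and preincubated with compounds (duplicate 8-point) for 10 min at room temperature. Ca2+ injection to 5 mM final produced FLIPR GCaMP fluorescence, giving AC50 for influx inhibition (geometric mean, ≥2 runs).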

Question: `CC(O)c1ncc(OCCN2CCC3(CC2)C(=O)Nc2ccc(Cl)cc23)cc1C(F)(F)F` (single isomer, unassigned) [Compound 292, 5-chloro-1′-[2-({6-[(1S) or (1R)-1-hydroxyethyl]-5-(trifluoromethyl)pyridin-3-yl}oxy)ethyl]-1,2-dihydrospiro[indole-3,4′-piperidin]-2-one] was tested. Which AC50 did it give?
Answer: 1300 nM

Question: Which AC50 does the source give for `CNC(=O)C1(c2ccc(OCCN3CCC4(CC3)C(=O)Nc3ccc(C#N)cc34)cc2)COC1` [Compound 255, 3-[4-(2-{5-cyano-2-oxo-1,2-dihydrospiro[indole-3,4′-piperidin]-1′-yl}ethoxy)phenyl]-N-methyloxetane-3-carboxamide] here?
Answer: 2640 nM

Question: With `CS(=O)(=O)Nc1ccc(OCCN2CCC3(CC2)C(=O)Nc2ccc(Cl)cc23)cc1` [Compound 214, N-[4-(2-{5-chloro-2-oxo-1,2-dihydrospiro[indole-3,4′-piperidin]-1′-yl}ethoxy)phenyl]methanesulfonamide] as the compound, how does the AC50 read?
Answer: 355 nM

Question: How did the AC50 turn out when `C[C@@H](COc1ccc2c(cnn2C)c1)N1CCC2(CC1)C(=O)Nc1ccc(Cl)cc12` (single isomer, unassigned) [Compound 211] was run?
Answer: 1290 nM

Question: How did the AC50 turn out when `CNC(=O)c1ccc(OCCN2CCC3(CC2)C(=O)Nc2ccc(Cl)cc23)cc1F` [Compound 229, 4-(2-{5-chloro-2-oxo-1,2-dihydrospiro[indole-3,4′-piperidin]-1′-yl}ethoxy)-2-fluoro-N-methylbenzamide] was run?
Answer: 792 nM

Question: For `NC(=O)c1ccc(OCCN2CCC3(CC2)C(=O)Nc2ccc(Cl)cc23)cc1C(F)F` [Compound 249, 4-(2-{5-chloro-2-oxo-1,2-dihydrospiro[indole-3,4′-piperidin]-1′-yl}ethoxy)-2-(difluoromethyl)benzamide], which AC50 is on record?
Answer: 433 nM

Question: How did the AC50 turn out when `CS(=O)(=O)C1CN(c2ncc(OCCN3CCC4(CC3)C(=O)Nc3ccc(Cl)cc34)cn2)C1` [Compound 302, 5-chloro-1′-(2-{[2-(3-methanesulfonylazetidin-1-yl)pyrimidin-5-yl]oxy}ethyl)-1,2-dihydrospiro[indole-3,4′-piperidin]-2-one] was run?
Answer: 1030 nM

Question: `CS(=O)(=O)c1ccc(OCCN2CCC3(CC2)C(=O)N(CCO)c2ccc(Br)cc23)cc1` [Compound 24, 5-bromo-1-(2-hydroxyethyl)-1′-[2-(4-methanesulfonylphenoxy)ethyl]-1,2-dihydrospiro[indole-3,4′-piperidin]-2-one] was tested. Which AC50 did it give?
Answer: 200 nM

Question: Which AC50 does the source give for `CN(C)C(=O)C1(c2ccc(OCCN3CCC4(CC3)C(=O)Nc3ccc(C#N)cc34)cc2)COC1` [Compound 254, 3-[4-(2-{5-cyano-2-oxo-1,2-dihydrospiro[indole-3,4′-piperidin]-1′-yl}ethoxy)phenyl]-N,N-dimethyloxetane-3-carboxamide] here?
Answer: 898 nM

Question: How did the AC50 turn out when `CS(=O)(=O)c1ccc(OCCN2CCC3(CC2)C(=O)N(CCO)c2ccc(Cl)cc23)cc1` [Compound 18, 5-chloro-1-(2-hydroxyethyl)-1′-[2-(4-methanesulfonylphenoxy)ethyl]-1,2-dihydrospiro[indole-3,4′-piperidin]-2-one] was run?
Answer: 240 nM

Question: With `CN(C)C(=O)C1(S(=O)(=O)c2ccc(OCCN3CCC4(CC3)C(=O)Nc3ccc(Cl)cc34)cc2)CC1` [Compound 227, 1-[4-(2-{5-chloro-2-oxo-1,2-dihydrospiro[indole-3,4′-piperidin]-1′-yl}ethoxy)benzenesulfonyl]-N,N-dimethylcyclopropane-1-carboxamide] as the compound, how does the AC50 read?
Answer: 1110 nM

Question: With `CNC(=O)N1CCc2cc(OCCN3CCC4(CC3)C(=O)Nc3ccc(Cl)cc34)ccc2C1` [Compound 245, 6-(2-{5-chloro-2-oxo-1,2-dihydrospiro[indole-3,4′-piperidin]-1′-yl}ethoxy)-N-methyl-1,2,3,4-tetrahydroisoquinoline-2-carboxamide] as the compound, how does the AC50 read?
Answer: 718 nM

Question: With `O=C1Nc2ccc(Cl)cc2C12CCN(CCOc1ccc(S(=O)(=O)C3(CO)CC3)nc1)CC2` [Compound 248, 5-chloro-1′-{2-[(6-{[1-(hydroxymethyl)cyclopropyl]sulfonyl}pyridin-3-yl)oxy]ethyl}-1,2-dihydrospiro[indole-3,4′-piperidin]-2-one] as the compound, how does the AC50 read?
Answer: 820 nM

Question: With `CS(=O)(=O)C1(c2ccc(OCCN3CCC4(CC3)C(=O)Nc3ccc(C(F)F)cc34)cc2)CC(O)C1` (single isomer, unassigned) [Compound 281, 5-(difluoromethyl)-1′-(2-{4-[(cis) or (trans)-3-hydroxy-1-methanesulfonylcyclobutyl]phenoxy}ethyl)-1,2-dihydrospiro[indole-3,4′-piperidin]-2-one] as the compound, how does the AC50 read?
Answer: 1310 nM

Question: How did the AC50 turn out when `CS(=O)(=O)c1ccc(OCCN2CCC3(CC2)C(=O)Nc2ccc(Cl)cc23)cc1C(O)CO` (stereo not shown) [Compound 216, 5-chloro-1′-{2-[3-(1,2-dihydroxyethyl)-4-methanesulfonylphenoxy]ethyl}-1,2-dihydrospiro[indole-3,4′-piperidin]-2-one] was run?
Answer: 3140 nM

Question: With `CNC(=O)C1(S(=O)(=O)c2ccc(OCCN3CCC4(CC3)C(=O)Nc3ccc(Cl)cc34)cc2)CC1` [Compound 226, 1-[4-(2-{5-chloro-2-oxo-1,2-dihydrospiro[indole-3,4′-piperidin]-1′-yl}ethoxy)benzenesulfonyl]-N-methylcyclopropane-1-carboxamide] as the compound, how does the AC50 read?
Answer: 1080 nM

Question: `O=C(c1ccc(OCCN2CCC3(CC2)C(=O)Nc2ccc(Cl)cc23)cc1F)N1CC2(C1)CS(=O)(=O)C2` [Compound 239, 6-[4-(2-{5-chloro-2-oxo-1,2-dihydrospiro[indole-3,4′-piperidin]-1′-yl}ethoxy)-2-fluorobenzoyl]-2λ^6-thia-6-azaspiro[3.3]heptane-2,2-dione] was tested. Which AC50 did it give?
Answer: 1540 nM

Question: For `O=C1CCc2cc(OCCN3CCC4(CC3)C(=O)Nc3ccc(Cl)cc34)cnc2N1CCO` [Compound 192, 5-chloro-1′-(2-{[8-(2-hydroxyethyl)-7-oxo-5,6,7,8-tetrahydro-1,8-naphthyridin-3-yl]oxy}ethyl)-1,2-dihydrospiro[indole-3,4′-piperidin]-2-one], which AC50 is on record?
Answer: 291 nM

Question: How did the AC50 turn out when `CN1C(=O)C2(CCN(CCOc3ccc(C(=O)N4CCS(=O)(=O)CC4)c(C(F)(F)F)c3)CC2)c2cc(C#N)ccc21` [Compound 261, 1′-{2-[4-(1,1-dioxo-1λ^6-thiomorpholine-4-carbonyl)-3-(trifluoromethyl)phenoxy]ethyl}-1-methyl-2-oxo-1,2-dihydrospiro[indole-3,4′-piperidine]-5-carbonitrile] was run?
Answer: 1460 nM

Question: How did the AC50 turn out when `O=C(c1ccc(OCCN2CCC3(CC2)C(=O)Nc2ccc(Cl)cc23)cc1F)N1CCC1` [Compound 234, 1′-{2-[4-(azetidine-1-carbonyl)-3-fluorophenoxy]ethyl}-5-chloro-1,2-dihydrospiro[indole-3,4′-piperidin]-2-one] was run?
Answer: 786 nM

Question: `CN1C(=O)CCc2cc(OCCN3CCC4(CC3)C(=O)Nc3ccc(Cl)cc34)ccc21` [Compound 27, 5-chloro-1′-[2-[(1-methyl-2-oxo-3,4-dihydroquinolin-6-yl)oxy]ethyl]spiro[indoline-3,4′-piperidine]-2-one] was tested. Which AC50 did it give?
Answer: 510 nM

Question: `CS(=O)(=O)C1(c2ccc(OCCN3CCC4(CC3)C(=O)Nc3ccc(Cl)cc34)cc2)COC1` [Compound 195, 5-chloro-1′-{2-[4-(3-methanesulfonyloxetan-3-yl)phenoxy]ethyl}-1,2-dihydrospiro[indole-3,4′-piperidin]-2-one] was tested. Which AC50 did it give?
Answer: 604 nM

Question: For `C[C@]1(O)C[C@@H](N2C(=O)OCc3cc(OCCN4CCC5(CC4)C(=O)Nc4ccc(Cl)cc45)cnc32)C1` [Compound 289, 5-chloro-1′-[2-({2-oxo-1-[(cis)-3-hydroxy-3-methylcyclobutyl]-1H,2H,4H-pyrido[2,3-d][1,3]oxazin-6-yl]oxy)ethyl]-1,2-dihydrospiro[indole-3,4′-piperidin]-2-one], which AC50 is on record?
Answer: 552 nM

Question: For `CS(=O)(=O)c1ccc(OCCN2CCCC3(CC2)C(=O)Nc2ccccc23)cc1` (stereo not shown) [Compound 26, 1-(2-(4-(methylsulfonyl)phenoxy)ethyl)spiro[azepane-4,3′-indolin]-2′-one], which AC50 is on record?
Answer: 943 nM

Question: `Cc1n[nH]cc1-c1ccc(OCCN2CCC3(CC2)C(=O)Nc2ccc(Cl)cc23)cc1` [Compound 244, 5-chloro-1′-{2-[4-(5-methyl-1H-pyrazol-4-yl)phenoxy]ethyl}-1,2-dihydrospiro[indole-3,4′-piperidin]-2-one] was tested. Which AC50 did it give?
Answer: 1060 nM

Question: With `CC(COc1ccc2c(c1)CCC(=O)N2C)N1CCC2(CC1)C(=O)Nc1ccc(C#N)cc12` (single isomer, unassigned) [Compound 203, (S) or (R)-1′-{1-[(1-methyl-2-oxo-1,2,3,4-tetrahydroquinolin-6-yl)oxy]propan-2-yl}-2-oxo-1,2-dihydrospiro[indole-3,4′-piperidine]-5-carbonitrile] as the compound, how does the AC50 read?
Answer: 1190 nM

Question: For `CC(COc1ccc(C2(S(C)(=O)=O)COC2)cc1)N1CCC2(CC1)C(=O)Nc1ccc(C#N)cc12` (single isomer, unassigned) [Compound 263, (S) or (R)-1′-{1-[4-(3-methanesulfonyloxetan-3-yl)phenoxy]propan-2-yl}-2-oxo-1,2-dihydrospiro[indole-3,4′-piperidine]-5-carbonitrile], which AC50 is on record?
Answer: 2540 nM

Question: With `CS(=O)(=O)c1ccc(OCCN2CCC3(CC2)C(=O)N(CCO)c2ccc(Cl)cc23)cc1C(F)F` [Compound 265, 5-chloro-1′-{2-[3-(difluoromethyl)-4-methanesulfonylphenoxy]ethyl}-1-(2-hydroxyethyl)-1,2-dihydrospiro[indole-3,4′-piperidin]-2-one] as the compound, how does the AC50 read?
Answer: 697 nM
